# Literature values, collected in publication PMC11214510 (Saudi Journal of Biological Sciences, 2024).
# Test system: AChE
# Conditions: mice, long-term supplementation, 40 mg/kg; ref Kasbe et al., 2015
compound,measurement,value
O=c1c2cc(O)c(O)cc2oc2cc(O)c([C@@H]3O[C@H](CO)[C@@H](O)[C@H](O)[C@H]3O)c(O)c12 [mangiferin],AChE expression produced by AlCl3,inhibits the expression of AChE
